Source: patent US8546401B2, “5,6-disubstituted oxindole-derivatives and use thereof for treating vasopressin-dependent diseases” (AbbVie Deutschland GmbH & Co. KG, priority 2007, dated 2013)

Columns and labels:
[1] = target: T1, human vasopressin V1a receptor (Homo sapiens, UniProt P37288); experiment: Vasopressin V1a receptor binding assay; conditions: selectivity quotient, human receptors
T1 construct: expressed in transfected cells; host or cells: CHO-K1 (cell line hV1a_5_CHO), membrane preparation
Procedure: 2. Vasopressin V1a Receptor Binding Assay:
The test substances were dissolved in a concentration of 10^−2 M in DMSO. Further dilution of these DMSO solutions took place in incubation buffer (50 mM Tris, 10 mM MgCl2, 0.1% BSA, pH 7.4).
(§1) CHO-K1 cells with stably expressed human vasopressin V1a receptor (clone 5) were harvested and homogenized in 50 mM Tris-HCl and in the presence of protease inhibitors (Roche complete Mini #1836170) using a Polytron homogenizer at intermediate setting for 2×10 seconds, and subsequently centrifuged at 40 000×g for 1 h. The membrane pellet was again homogenized and centrifuged as described and subsequently taken up in 50 mM Tris-HCl, pH 7.4, homogenized and stored in aliquots frozen in liquid nitrogen at −190° C.
(§2) The binding assay was carried out by the method based on that of Tahara et al. (Tahara A et al., Brit. J. Pharmacol. 125, 1463-1470 (1998)).
(§3) The incubation buffer was: 50 mM Tris, 10 mM MgCl2, 0.1% BSA, pH 7.4.
In the assay mixture (250 μl), membranes (20 μg/ml protein in incubation buffer) from CHO-K1 cells with stably expressed human V1a receptors (cell line hV1a—5_CHO) were incubated with 0.04 nM ^125I-AVP (8-Arg-vasopressin, NEX 128) in incubation buffer (50 mM Tris, 10 mM MgCl2, 0.1% BSA, pH 7.4) (total binding) or additionally with increasing concentrations of test substance (displacement experiment). The nonspecific binding was determined with 1 μM AVP (Bachem #H1780). Triplicate determinations were carried out.
After incubation (60 minutes at room temperature), the free radioligand was filtered off by vacuum filtration (Skatron cell harvester 7000) through Wathman GF/B glass fiber filter mats, and the filters were transferred into scintillation vials.
The liquid scintillation measurement took place in a model 2000 or 2200CA Tricarb instrument (Packard). Conversion of the measured cpm into dpm was carried out with the aid of a standard quench series.
(§4) The binding parameters were calculated by nonlinear regression in SAS. The algorithms of the program operate in analogy to the LIGAND analysis program (Munson P J and Rodbard D, Analytical Biochem. 107, 220-239 (1980)). The Kd of ^125I-AVP for the recombinant hV1a receptors was determined in saturation experiments. A Kd of 1.33 nM was used to determine the Ki.

human oxytocin receptors = target: T2, human oxytocin receptors (Homo sapiens, UniProt P30559); experiment: Oxytocin receptor binding assay; conditions: selectivity quotient
T2 construct: expressed in transfected cells; host or cells: HEK-293, transient expression; lysed and homogenized cells
T2 sequence (P30559 1-389): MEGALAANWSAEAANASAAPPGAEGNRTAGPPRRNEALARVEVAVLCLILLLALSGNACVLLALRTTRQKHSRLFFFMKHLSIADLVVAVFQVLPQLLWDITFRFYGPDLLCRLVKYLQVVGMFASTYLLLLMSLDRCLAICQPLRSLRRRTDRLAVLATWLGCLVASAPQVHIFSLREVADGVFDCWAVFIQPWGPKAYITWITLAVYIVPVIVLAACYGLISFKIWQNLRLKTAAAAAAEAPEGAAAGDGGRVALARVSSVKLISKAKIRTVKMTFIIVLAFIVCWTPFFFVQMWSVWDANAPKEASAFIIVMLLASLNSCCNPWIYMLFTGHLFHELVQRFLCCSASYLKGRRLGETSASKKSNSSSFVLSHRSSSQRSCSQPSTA
Procedure: 4. Oxytocin Receptor Binding Assay
The substances were dissolved in a concentration of 10^−2 M in DMSO and diluted with incubation buffer (50 mM Tris, 10 mM MgCl2, 0.1% BSA, pH 7.4).
Confluent HEK-293 cells with transiently expressing recombinant human oxytocin receptors were centrifuged at 750×g at room temperature for 5 minutes. The residue was taken up in ice-cold lysis buffer (50 mM Tris-HCl, 10% glycerol, pH 7.4 and Roche complete protease inhibitor) and subjected to an osmotic shock at 4° C. for 20 minutes. The lyzed cells were then centrifuged at 750×g at 4° C. for 20 minutes, the residue was taken up in incubation buffer, and aliquots of 10^7 cells/ml were prepared. The aliquots were frozen at −80° C. until used.
On the day of the experiment, the cells were thawed, diluted with incubation buffer and homogenized using a Multipette Combitip (Eppendorf, Hamburg). The reaction mixture of 0.250 ml was composed of 2 to 5×10^4 recombinant cells, 3-4 nM ^3H-oxytocin (PerkinElmer, NET 858) in the presence of test substance (inhibition plot) or only incubation buffer (total binding). The nonspecific binding was determined with 10^−6 M oxytocin (Bachem AG, H2510). Triplicate determinations were set up. Bound and free radioligand were separated by filtration under vacuum with Whatman GF/B glass fiber filters with the aid of a Skatron cell harvester 7000. The bound radioactivity was determined by liquid scintillation measurement in a Tricarb Beta counter, model 2000 or 2200CA (Packard).
The binding parameters were calculated by nonlinear regression analysis (SAS) in analogy to the LIGAND program of Munson and Rodbard (Analytical Biochem 1980; 107: 220-239). The Kd of ^3H-oxytocin for the recombinant hOT receptors is 7.6 nM and was used to determine the Ki.

[2] = target: T3, human vasopressin V1b receptor (Homo sapiens, UniProt P47901); experiment: Vasopressin V1b receptor binding assay; conditions: CHO-K1 membranes, 3H-AVP displacement
T3 construct: expressed in transfected cells; host or cells: CHO-K1 (cell line hV1b_3H2_CHO), membrane preparation
T3 sequence (P47901 1-424): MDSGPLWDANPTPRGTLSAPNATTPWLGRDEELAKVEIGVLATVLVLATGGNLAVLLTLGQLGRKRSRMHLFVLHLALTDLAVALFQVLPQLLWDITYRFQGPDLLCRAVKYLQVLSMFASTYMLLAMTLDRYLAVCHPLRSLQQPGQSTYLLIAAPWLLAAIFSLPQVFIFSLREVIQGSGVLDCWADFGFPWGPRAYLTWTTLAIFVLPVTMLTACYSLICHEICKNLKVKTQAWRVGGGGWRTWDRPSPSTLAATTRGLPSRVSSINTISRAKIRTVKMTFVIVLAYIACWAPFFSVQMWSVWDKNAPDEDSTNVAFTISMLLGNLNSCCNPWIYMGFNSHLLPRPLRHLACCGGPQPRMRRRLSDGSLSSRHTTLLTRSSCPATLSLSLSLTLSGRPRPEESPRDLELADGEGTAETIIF
Procedure: 1. Vasopressin V1b Receptor Binding Assay:
The test substances were dissolved in a concentration of 10^−2 M in DMSO and further diluted to 5×10^−4 M to 5×10^−3 M. These serial DMSO predilutions were diluted 1:10 with assay buffer. The substance concentration was further diluted 1:5 in the assay mixture (2% DMSO in the mixture).
as §1, with “V1b” for “V1a”, “3H2)” for “5)”
as §2, §3
In the assay mixture (250 μl), membranes (50 μg/ml protein in incubation buffer) from CHO-K1 cells with stably expressed human V1b receptors (cell line hV1b—3H2_CHO) were incubated with 1.5 nM ^3H-AVP (8-Arg-vasopressin, PerkinElmer #18479) in incubation buffer (50 mM Tris, 10 mM MgCl2, 0.1% BSA, pH 7.4) (total binding) or additionally with increasing concentrations of test substance (displacement experiment). The nonspecific binding was determined with […] (Bachem #H1780). All determinations were carried out as triplicate determinations. After incubation (60 minutes at room temperature), the free radioligand was filtered off by vacuum filtration (Skatron cell harvester 7000) through Wathman GF/B glass fiber filter mats, and the filters were transferred into scintillation vials. The liquid scintillation measurement took place in a model 2000 or 2200CA Tricarb instrument (Packard). Conversion of the measured cpm into dpm was carried out with the aid of a standard quench series.
as §4, with “^3H-AVP” for “^125I-AVP”, “human V1b” for “hV1a”, “is 0.4” for “was determined in saturation experiments. A Kd of 1.33”, “nM and” for “nM”

T1 sequence (P37288 whole entry): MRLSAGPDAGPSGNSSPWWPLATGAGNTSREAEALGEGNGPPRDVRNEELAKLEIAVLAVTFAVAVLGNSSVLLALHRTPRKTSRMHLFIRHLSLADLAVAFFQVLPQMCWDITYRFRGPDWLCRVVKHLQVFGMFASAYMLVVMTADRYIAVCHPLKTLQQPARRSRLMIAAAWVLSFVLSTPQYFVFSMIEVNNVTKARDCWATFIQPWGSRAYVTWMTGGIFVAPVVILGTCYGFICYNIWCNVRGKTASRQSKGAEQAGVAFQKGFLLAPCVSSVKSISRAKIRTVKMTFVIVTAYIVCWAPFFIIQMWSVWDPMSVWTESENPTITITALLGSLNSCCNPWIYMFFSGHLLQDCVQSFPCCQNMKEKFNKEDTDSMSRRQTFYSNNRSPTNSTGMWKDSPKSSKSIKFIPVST

Compound | Ki(h − V1a)/Ki(h − V1b)* [1] | Ki(h − OT)/Ki(h − V1b)* (human oxytocin receptors) | Ki [2]
CCOc1ncccc1C1(NC(=O)N2CCN(C3CCN(C)CC3)CC2)C(=O)N(S(=O)(=O)c2ccc(OC)cc2OC)c2cc(F)c(Cl)cc21 (stereo not drawn) [Example 19, 4-(1-Methylpiperidin-4-yl)piperazine-1-[5-chloro-1-(2,4-dimethoxyphenylsulfonyl)-3-(2-ethoxypyridin-3-yl)-6-fluoro-2-oxo-2,3-dihydro-1H-indol-3-yl]carboxamide] | ++ (25-75) | ++ (25-75) | < 1 nM
CCOc1ncccc1C1(NC(=O)N2CCN(C3CCN(C)CC3)CC2)C(=O)N(S(=O)(=O)c2ccccc2)c2cc(F)c(Cl)cc21 (stereo not drawn) [Example 20, 4-(1-Methylpiperidin-4-yl)piperazine-1-[1-phenylsulfonyl-5-chloro-3-(2-ethoxypyridin-3-yl)-6-fluoro-2-oxo-2,3-dihydro-1H-indol-3-yl]carboxamide] | + (10-<25) | ++ (25-75) | 1 to 10 nM
CCOc1ncccc1C1(NC(=O)N2CCN(C3CCN(CC)CC3)CC2)C(=O)N(S(=O)(=O)c2ccc(OC)cc2OC)c2cc(F)c(Cl)cc21 (stereo not drawn) [Example 21, 4-(1-Ethylpiperidin-4-yl)piperazine-1-[5-chloro-1-(2,4-dimethoxyphenylsulfonyl)-3-(2-ethoxypyridin-3-yl)-6-fluoro-2-oxo-2,3-dihydro-1H-indol-3-yl]carboxamide] | ++ (25-75) | +++ (>75) | < 1 nM
CCOc1ncccc1C1(NC(=O)N2CCN(C3CCN(CC)CC3)CC2)C(=O)N(S(=O)(=O)c2ccccc2)c2cc(F)c(Cl)cc21 (stereo not drawn) [Example 22, 4-(1-Ethylpiperidin-4-yl)piperazine-1-[1-phenylsulfonyl-5-chloro-3-(2-ethoxypyridin-3-yl)-6-fluoro-2-oxo-2,3-dihydro-1H-indol-3-yl]carboxamide] | + (10-<25) | +++ (>75) | 1 to 10 nM
CCOc1ncccc1C1(NC(=O)N2CCC(N3CCN(C)CC3)CC2)C(=O)N(S(=O)(=O)c2ccc(OC)cc2OC)c2cc(F)c(Cl)cc21 (stereo not drawn) [Example 23, 4-(4-Methylpiperazin-1-yl)piperidine-1-[5-chloro-1-(2,4-dimethoxyphenylsulfonyl)-3-(2-ethoxypyridin-3-yl)-6-fluoro-2-oxo-2,3-dihydro-1H-indol-3-yl]carboxamide] | + (10-<25) | +++ (>75) | < 1 nM
CCOc1ncccc1C1(NC(=O)N2CCC(C3CCN(C)CC3)CC2)C(=O)N(S(=O)(=O)c2ccc(OC)cc2OC)c2cc(F)c(Cl)cc21 (stereo not drawn) [Example 26, 1′-Methyl[4,4′]bipiperidinyl-1-[5-chloro-1-(2,4-dimethoxyphenylsulfonyl)-3-(2-ethoxy-pyridin-3-yl)-6-fluoro-2-oxo-2,3-dihydro-1H-indol-3-yl]carboxamide] | + (10-<25) | +++ (>75) | < 1 nM
CCOc1ncccc1C1(NC(=O)N2CCN(C3CCN(C)CC3)CC2)C(=O)N(S(=O)(=O)c2ccc(OC)cc2OC)c2cc(F)c(F)cc21 (stereo not drawn) [Example 31, 4-(1-Methylpiperidin-4-yl)piperazine-1-[1-(2,4-dimethoxyphenylsulfonyl)-3-(2-ethoxy-pyridin-3-yl)-5,6-difluoro-2-oxo-2,3-dihydro-1H-indol-3-yl]carboxamide] | +++ (>75) | + (10-<25) | 10 to 100 nM
CCOc1ncccc1C1(NC(=O)N2CCN(C3CCN(CC)CC3)CC2)C(=O)N(S(=O)(=O)c2ccc(OC)cc2OC)c2cc(F)c(F)cc21 (stereo not drawn) [Example 33, 4-(1-Ethylpiperidin-4-yl)piperazine-1-[1-(2,4-dimethoxyphenylsulfonyl)-3-(2-ethoxy-pyridin-3-yl)-5,6-difluoro-2-oxo-2,3-dihydro-1H-indol-3-yl]carboxamide] | +++ (>75) | +++ (>75) | 1 to 10 nM
